In assay [1] the test system is membrane vesicles purified from the midgut tissue of B. mori larvae. In words: Uptake of radiolabeled leucine into membrane vesicles from B. mori larval midgut. The conditions noted are these: 0.2 mM test substance, 0.1 mM L-leucine, pH 10.8, 7 seconds incubation; None (control) 450 ± 20. The class given is biochemical, Bombyx mori. As to the method:
The effect of different esters and aminoesters was tested in vitro by measuring the uptake of radiolabeled leucine into membrane vesicles purified from the midgut tissue of B. mori larvae.
Uptakes were measured by incubating 10 μl of membrane vesicles and 40 μl of a isosmotic mixture buffered at pH 10.8 and containing 0.1 mM L-leucine, 30 μCi/ml of L-[3H]-leucine as a tracer and 0.2 mM of the substances indicated. Incubations were stopped after 7 seconds by 75-fold dilution in an ice-cold isotonic saline and filtration through cellulose filters (0.2 μm mesh). Filters were then counted for radioactivity in a scintillation counter and data were expressed per mg of membrane proteins. Vesicles were prepared by calcium precipitation and differential centrifugation from Bombyx mori larval midgut according to standard biochemical protocols.

For assay [2], the system named is Bombyx mori larvae. In words: Rearing of Bombyx mori larvae on artificial diet supplemented with ester. The class given is in vivo. The settings on record: 130 mg per 1 kg of diet; for Percent of mortality: first three larval instars.

Turning to `CCC(C)CC(=O)OC` (stereo not shown) [3-methylvaleric methyl ester], the Leucine uptake in assay [1] is 800 ± 30 pmol/7s/mg membrane protein.

With `COC(=O)CCC(C)C` [4-methylvaleric methyl ester], the Leucine uptake in assay [1] was 2600 ± 80 pmol/7s/mg membrane protein.

`CCOC(=O)[C@@H](N)CC(C)C` [Leucine ethyl ester]: the Leucine uptake in assay [1] was 2200 ± 75 pmol/7s/mg membrane protein.

For the molecule `COC(=O)[C@@H](N)CC(C)C` [Leucine methyl ester, L-leucine methyl ester], the “Weight of cocoon shell” value in assay [2] (Polyhybrid (28 × 15) × (10 × 14), control 0.32 ± 0.02) was 0.46 ± 0.03 g; in assay [2] (Race BG35, control 0.25 ± 0.02) it was 0.31 ± 0.01 g. In addition, the Percent of mortality in assay [2] (Polyhybrid (28 × 15) × (10 × 14), control 19) stood at 0%; in assay [2] (Race 21 Molucelli, control 30) it was 20%. Besides, in assay [1], the Leucine uptake was 4500 ± 150 pmol/7s/mg membrane protein.

In the case of `COC(=O)[C@@H](N)CCSC` [Methionine methyl ester, L-methionine methyl ester], in assay [1], the Leucine uptake was 4000 ± 180 pmol/7s/mg membrane protein.

In the case of `CCCC[C@H](N)C(=O)OC` [Norleucine methyl ester], the Leucine uptake in assay [1] was 3800 ± 100 pmol/7s/mg membrane protein.

The values are drawn from patent US6610333B1, “Feed supplement for arthropods” (Universita Degli Studi di Milano, priority 1998, dated 2003).
